Experimental data taken from patent US8415359B2, “Phenylpyrrole derivative” (Daiichi Sankyo Company, Limited, priority 2008, dated 2013).

Target: T1, human pancreatic GK (human glucokinase variant 1, GST-fused protein) (Homo sapiens, UniProt P35557)
T1 construct: made in house; host or cells: Escherichia coli (such as BL21 or JM109)
T1 sequence (P35557 1-465): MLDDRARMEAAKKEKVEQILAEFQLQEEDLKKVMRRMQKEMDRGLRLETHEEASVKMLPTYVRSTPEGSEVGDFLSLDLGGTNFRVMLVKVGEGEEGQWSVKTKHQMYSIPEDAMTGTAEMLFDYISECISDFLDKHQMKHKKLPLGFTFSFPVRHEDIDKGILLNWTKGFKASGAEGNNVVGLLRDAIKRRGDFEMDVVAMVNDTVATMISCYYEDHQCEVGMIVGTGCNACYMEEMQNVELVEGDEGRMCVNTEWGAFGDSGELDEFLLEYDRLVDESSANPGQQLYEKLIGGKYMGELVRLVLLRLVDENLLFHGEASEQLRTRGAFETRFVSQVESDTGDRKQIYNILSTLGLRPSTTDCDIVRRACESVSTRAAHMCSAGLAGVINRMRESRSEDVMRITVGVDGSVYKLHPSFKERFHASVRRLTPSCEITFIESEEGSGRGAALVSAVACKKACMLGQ
Assay: GK activity test (GK activation rate)
Assay type: biochemical
Settings: test compound 1 μM; glucose 5 mM; 30 min at room temperature; absorbance at 340 nm with test compound / without test compound
Description: cDNA encoding human pancreatic GK polypeptide (GenBank Accession No. NM_000162, human glucokinase variant 1) was cloned from a human cDNA library by polymerase chain reaction (PCR), and introduced into a glutathione S-transferase (GST)-fused protein expression vector (GEX4T, GE Healthcare Bioscience). The vector was introduced into Escherichia coli (such as BL21 or JM109, Invitrogen), and the transformed E. coli was cultured overnight at 37° C. followed by recovery of the cells. After freezing and thawing the recovered cells, the cells were suspended in phosphate buffer containing Triton-X at a final concentration of 1% followed by disrupting the cells with an ultrasonic homogenizer. The supernatant obtained by low-speed centrifugation treatment of the homogenate (10,000×g, 30 minutes) was further subjected to high-speed centrifugation (100,000×g, 10 minutes) followed by recovering the supernatant and purifying the fused protein using a GST fused protein purification system (Bulk GST Purification Module, GE Healthcare Bioscience). The GK fused protein was divided into smaller aliquots and stored at −80° C.
GK activity was measured using the GK purified in (1) above. More specifically, an enzyme solution was prepared by adding the purified GK of (1) above and glucose-6-phosphate dehydrogenase (Sigma) to solution 1 of a glucose assay kit (D-Glucose UV Method, Roche Diagnostics). The enzyme solution, a test compound diluent and glucose (final concentration: 5 mM) were mixed in a 96-well ELISA plate, and allowed to react for 30 minutes at room temperature. Following completion of the reaction, absorbance at a wavelength of 340 nm was measured using SpectraMax Plus (Molecular Probe). Furthermore, unreacted (when glucose was not added) absorbance was used for the background.
GK activation rates were indicated with values represented by the following numerical formula: (absorbance after reacting for 30 minutes when test compound added)/(absorbance after reacting for 30 minutes when test compound not added).

| Structure (SMILES) | GK Activation Rate |
| --- | --- |
| COC[C@H](C)Oc1cc(Oc2ccc(C(=O)N3CCCC3)cc2F)cc(-c2ccc(-c3nccs3)[nH]2)c1 [Example 47, 2-(5-{3-[2-Fluoro-4-(pyrrolidin-1-ylcarbonyl)phenoxy]-5-[(1S)-2-methoxy-1-methylethoxy]phenyl}-1H-pyrrol-2-yl)-1,3-thiazole] | 2.0 |
| COC[C@H](C)Oc1cc(Oc2ccc(S(C)(=O)=O)cc2)cc(-c2ccc(C3=NCCS3)[nH]2)c1 [Example 25, 2-(5-{3-[(1S)-2-Methoxy-1-methylethoxy]-5-[4-(methylsulfonyl)phenoxy]phenyl}-1H-pyrrol-2-yl)-4,5-dihydro-1,3-thiazole] | 2.0 |
| COC[C@H](C)Oc1cc(Oc2ncc(C(=O)N3CCC3)cc2Cl)cc(-c2ccc(-c3nccs3)[nH]2)c1 [Example 60, 5-(Azetidin-1-ylcarbonyl)-3-chloro-2-{3-[(1S)-2-methoxy-1-methylethoxy]-5-[5-(1,3-thiazol-2-yl)-1,1-pyrrol-2-yl]phenoxy}pyridine] | 2.0 |
| C[C@@H](CO)Oc1cc(Oc2ccc(S(C)(=O)=O)cc2)cc(-c2ccc(C3=NCCO3)[nH]2)c1 [Example 21, (2S)-2-{3-[5-(4,5-Dihydro-1,3-oxazol-2-yl)-1H-pyrrol-2-yl]-5-[4-(methylsulfonyl)phenoxy]phenoxy}propan-1-ol] | 2.0 |
| C[C@@H]1COC(c2ccc(-c3cc(Oc4cnc(S(C)(=O)=O)cn4)cc(O[C@@H](C)CO)c3)[nH]2)=N1 [Example 107, (2S)-2-(3-{5-[(4R)-4-Methyl-4,5-dihydro-1,3-oxazol-2-yl]-1H-pyrrol-2-yl}-5-{[5-(methylsulfonyl)pyrazin-2-yl]oxy}phenoxy)propan-1-ol] | 2.0 |
| COC[C@H](C)Oc1cc(Oc2cnc(S(C)(=O)=O)cn2)cc(-c2ccc(C3=N[C@H](CO)[C@H](C)O3)[nH]2)c1 [Example 110, {(4R,5S)-2-[5-(3-{[(2S)-1-Methoxypropan-2-yl]oxy}-5-{[5-(methylsulfonyl)pyrazin-2-yl]oxy}phenyl)-1H-pyrrol-2-yl]-5-methyl-4,5-dihydro-1,3-oxazol-4-yl}methanol] | 2.4 |
